This note sets out measurements from DBAASP.

Some test systems named below: Staphylococcus aureus; Escherichia coli D31; Fusarium culmorum; Klebsiella pneumoniae; Neurospora crassa; Alternaria brassicicola; Escherichia coli D22; Aerococcus viridans; Micrococcus luteus; Botrytis cinerea; Bacillus megaterium.
Test in all cases: ≥ marks a high value that may be exact or a test limit, other limits are often not marked, values filed in µg/mL are converted to µM
The test system of test [1] is Mycobacterium tuberculosis CAS3.
Test [2] deals with Mycobacterium tuberculosis WXY.
The test system of test [3] is Mycobacterium tuberculosis FYX.
For test [4], the system named is Saccharomyces cerevisiae S288C.
Test [5] relates to Salmonella enterica subsp. enterica serovar Typhimurium ATCC 14028.
In test [6] the test system is Staphylococcus aureus ATCC 6538.
Test [7] has as its system Pseudomonas aeruginosa ATCC 13388.
In test [8] the test system is Klebsiella pneumoniae ATCC 10031.
For test [9], the system named is Escherichia coli ATCC 11219.
The subject of test [10] is Acinetobacter baumannii Ab41.
Test [11] concerns Escherichia coli ATCC 8739.
Test [12] relates to Acinetobacter baumannii AbR-215.

Converted amounts (≈) assume the structure as drawn.

For the compound `CSCC[C@H](NC(=O)[C@H](CCCCN)NC(=O)[C@H](CCCCN)NC(=O)[C@H](CC(C)C)NC(=O)[C@H](CC(C)C)NC(=O)[C@H](CCCCN)NC(=O)[C@H](CCCCN)NC(=O)[C@H](CC(C)C)NC(=O)[C@H](CC(C)C)NC(=O)[C@@H](N)CCSC)C(=O)O` [MLLKKLLKKM], the MIC was at least 120 µM in test [1], at least 60.2 µM in test [2] and at least 60.2 µM in [3].
Turning to `CC(C)C[C@H](NC(=O)[C@H](CC(N)=O)NC(=O)[C@H](Cc1c[nH]c2ccccc12)NC(=O)[C@@H](NC(=O)CNC(=O)CNC(=O)[C@H](CCCN=C(N)N)NC(=O)[C@H](CC(=O)O)NC(=O)[C@H](CC(C)C)NC(=O)[C@H](CCCN=C(N)N)NC(=O)[C@@H](N)CCCN=C(N)N)C(C)C)C(=O)N[C@@H](CC(N)=O)C(=O)N[C@H](C(=O)N[C@@H](CC(N)=O)C(=O)N1CCC[C@H]1C(=O)NCC(=O)N[C@H](C(=O)N[C@H](C(=O)NCC(=O)N[C@@H](C)C(=O)N[C@@H](CCCN=C(N)N)C(=O)N[C@H](C(=O)N[C@@H](Cc1c[nH]c2ccccc12)C(=O)N[C@@H](C)C(=O)N[C@@H](CCCN=C(N)N)C(=O)N[C@H](C(=O)N[C@@H](CCCCN)C(N)=O)[C@@H](C)O)C(C)C)[C@@H](C)O)[C@@H](C)O)C(C)C` [RRLDRGGVWNLNVNPGTTGARVWARTK], the MIC in [4] is at least 40 µM.
Regarding `CC[C@H](C)[C@H](NC(=O)[C@H](CC(=O)O)NC(=O)[C@H](Cc1cnc[nH]1)NC(=O)[C@H](C)NC(=O)CN)C(=O)N[C@@H](CC(C)C)C(=O)N[C@@H](CCCCN)C(=O)N[C@@H](Cc1ccc(O)cc1)C(=O)NCC(=O)N[C@@H](CCCCN)C(=O)N1CCC[C@H]1C(=O)N[C@@H](CO)C(N)=O` [GAHDILKYGKPS], the MIC in test [5] was above 50 µM; in test [6], 30 µM (≈ 38.5 µg/mL); in test [7], at least 50 µM; in test [8] it was at least 50 µM; in test [9], at least 50 µM.
On to `CC(C)C[C@H](NC(=O)[C@H](CCCCN)NC(=O)[C@H](C)NC(=O)[C@H](C)NC(=O)[C@H](C)NC(=O)[C@H](C)NC(=O)[C@H](C)NC(=O)[C@H](C)NC(=O)[C@H](CCCCN)NC(=O)[C@H](CC(C)C)NC(=O)[C@H](C)NC(=O)[C@H](C)NC(=O)[C@H](CCCCN)NC(=O)[C@H](C)NC(=O)[C@H](C)NC(=O)[C@H](CCCCN)NC(=O)[C@H](C)NC(=O)[C@H](C)NC(=O)[C@H](CC(C)C)NC(=O)[C@H](CCCCN)NC(=O)[C@H](C)NC(=O)[C@H](C)NC(=O)[C@H](C)NC(=O)[C@H](C)NC(=O)[C@H](C)NC(=O)[C@H](C)NC(=O)[C@H](CCCCN)NC(=O)[C@@H](N)CC(C)C)C(=O)O` [LKAAAAAAKLAAKAAKAALKAAAAAAKL], for which the MIC against Staphylococcus aureus was at least 80.6 µM; in [10] it was 3.2 µM (≈ 8.06 µg/mL); in [11], 3.2 µM (≈ 8.06 µg/mL); in test [12], 3.2 µM (≈ 8.06 µg/mL).
Consider `CC[C@H](C)[C@H](N)C(=O)N[C@H](C(=O)N[C@@H](Cc1ccc(O)cc1)C(=O)N[C@H]1CSSC[C@@H](C(=O)N[C@@H](CCC(N)=O)C(=O)N[C@@H](CCCN=C(N)N)C(=O)N[C@@H](CCSC)C(=O)O)NC(=O)[C@H](CCCCN)NC(=O)CNC(=O)[C@H]([C@@H](C)O)NC(=O)[C@H](CCCN=C(N)N)NC(=O)[C@H](CCCN=C(N)N)NC(=O)[C@H](CC(N)=O)NC1=O)[C@@H](C)CC` [IIYCNRRTGKCQRM], for which the MIC against Escherichia coli D31 was determined as 28.3 µM (≈ 49.2 µg/mL); with Fusarium culmorum it was 28.3 µM (≈ 49.2 µg/mL); against Klebsiella pneumoniae, 28.3 µM (≈ 49.2 µg/mL); in the test on Neurospora crassa it was 28.3 µM (≈ 49.2 µg/mL); with Alternaria brassicicola, 7.07 µM (≈ 12.3 µg/mL); in the test on Escherichia coli D22, 28.3 µM (≈ 49.2 µg/mL). For the same compound, the MIC was 1.73 µM (≈ 3.01 µg/mL) with Aerococcus viridans, 7.07 µM (≈ 12.3 µg/mL) with Micrococcus luteus, 14.1 µM (≈ 24.6 µg/mL) in the test on Botrytis cinerea and 14.1 µM (≈ 24.6 µg/mL) in the test with Bacillus megaterium.
